# Test results as given in ChEMBL document CHEMBL3045727, “Synthesis of some new thiazolopyrane and thiazolopyranopyrimidine derivatives bearing a sulfonamide moiety for evaluation as anticancer and radiosensitizing agents” (Med Chem Res, 2012).
# Legend:
# [1] = system: HepG2; assay: Cytotoxicity against Homo sapiens (human) HepG2 cells after 48 hr by SRB assay; format: functional, cell-based; conditions: HepG2, 48 h
# [2] = system: HepG2; assay: Cytotoxicity against Homo sapiens (human) HepG2 cells assessed as cell surviving fraction at 100 uM after 48 hr by SRB assay; format: functional
# [3] = system: HepG2; assay: Cytotoxicity against Homo sapiens (human) HepG2 cells assessed as cell surviving fraction at 50 uM after 48 hr by SRB assay; format: functional
# [4] = system: HepG2; assay: Cytotoxicity against Homo sapiens (human) HepG2 cells assessed as cell surviving fraction at 10 uM after 48 hr by SRB assay; format: functional
# [5] = system: HepG2; assay: Cytotoxicity against Homo sapiens (human) HepG2 cells assessed as cell surviving fraction at 25 uM after 48 hr by SRB assay; format: functional
# [6] = system: HepG2; assay: Cytotoxicity against Homo sapiens (human) HepG2 cells assessed as cell surviving fraction at 100 uM after 48 hr followed by gamma-radiation at dose level of 8 Gy by SRB assay; format: functional
# [7] = system: HepG2; assay: Cytotoxicity against Homo sapiens (human) HepG2 cells assessed as cell surviving fraction at 50 uM after 48 hr followed by gamma-radiation at dose level of 8 Gy by SRB assay; format: functional
# [8] = system: HepG2; assay: Cytotoxicity against Homo sapiens (human) HepG2 cells after 48 hr followed by gamma-radiation at dose level of 8 Gy by SRB assay; format: functional, cell-based; conditions: HepG2, 48 h
# [9] = system: HepG2; assay: Cytotoxicity against Homo sapiens (human) HepG2 cells assessed as cell surviving fraction at 10 uM after 48 hr followed by gamma-radiation at dose level of 8 Gy by SRB assay; format: functional
# [10] = system: HepG2; assay: Cytotoxicity against Homo sapiens (human) HepG2 cells assessed as cell surviving fraction at 25 uM after 48 hr followed by gamma-radiation at dose level of 8 Gy by SRB assay; format: functional
SMILES,IC50 [1],Ratio [2],Ratio [3],Ratio [4],Ratio [5],Ratio [6],Ratio [7],IC50 [8],Ratio [9],Ratio [10]
N#CC1=C(N2C(=O)CCC2=O)Oc2nc(Nc3ccc(S(N)(=O)=O)cc3)sc2C1c1ccc([N+](=O)[O-])cc1 (stereo not drawn),45 µM,0.231,0.342,0.71,0.474,,,,,
COc1ccc(C2c3sc(Nc4ccc(S(N)(=O)=O)cc4)nc3Oc3nc(C)[nH]c(=O)c32)cc1OC (stereo not drawn),30 µM,0.115,0.118,0.529,0.477,0.11,0.1,8 µM,0.31,0.12
COc1cccc2c1C(=O)c1c(O)c3c(c(O)c1C2=O)C[C@@](O)(C(=O)CO)C[C@@H]3O[C@H]1C[C@H](N)[C@H](O)[C@H](C)O1 [DOXORUBICIN],32 µM,0.125,0.122,0.537,0.479,,,,,
COc1ccc(C2C(C#N)=C(N)Oc3nc(Nc4ccc(S(N)(=O)=O)cc4)sc32)cc1OC (stereo not drawn),,0.672,0.64,0.628,0.564,,,,,
NS(=O)(=O)c1ccc(Nc2nc3c(s2)C(c2ccc([N+](=O)[O-])cc2)c2c(nc[nH]c2=O)O3)cc1 (stereo not drawn),36 µM,0.015,0.168,0.625,0.498,0.14,0.12,18 µM,0.41,0.22
Nc1nc(=O)[nH]c2c1C(c1ccc([N+](=O)[O-])cc1)c1sc(Nc3ccc(S(N)(=O)=O)cc3)nc1O2 (stereo not drawn),45 µM,0.262,0.244,0.779,0.487,,,,,
N#CC1=C(NC(=O)CCC(=O)O)Oc2nc(Nc3ccc(S(N)(=O)=O)cc3)sc2C1c1ccc([N+](=O)[O-])cc1 (stereo not drawn),32 µM,0.166,0.127,0.626,0.382,0.13,0.11,15 µM,0.36,0.23
NS(=O)(=O)c1ccc(NC2=NC(=O)CS2)cc1,43 µM,0.231,0.168,0.848,0.501,0.12,0.12,30 µM,0.53,0.48
N#CC1=C(N)Oc2nc(Nc3ccc(S(N)(=O)=O)cc3)sc2C1c1ccc([N+](=O)[O-])cc1 (stereo not drawn),60 µM,0.312,0.376,0.846,0.767,,,,,
Nc1nc(=S)[nH]c2c1C(c1ccc([N+](=O)[O-])cc1)c1sc(Nc3ccc(S(N)(=O)=O)cc3)nc1O2 (stereo not drawn),39 µM,0.246,0.284,0.615,0.432,,,,,
COc1ccc(C2c3sc(Nc4ccc(S(N)(=O)=O)cc4)nc3Oc3nc[nH]c(=O)c32)cc1OC (stereo not drawn),32 µM,0.127,0.164,0.561,0.446,,,,,
N#CC1=C(N)Oc2nc(Nc3ccc(S(N)(=O)=O)cc3)sc2C1c1cccc(Br)c1 (stereo not drawn),72 µM,0.509,0.388,0.846,0.564,,,,,
Nc1ncnc2c1C(c1ccc([N+](=O)[O-])cc1)c1sc(Nc3ccc(S(N)(=O)=O)cc3)nc1O2 (stereo not drawn),65 µM,0.489,0.287,0.814,0.605,,,,,
CC(=O)CC(=O)NC1=C(C#N)C(c2ccc([N+](=O)[O-])cc2)c2sc(Nc3ccc(S(N)(=O)=O)cc3)nc2O1 (stereo not drawn),37 µM,0.299,0.206,0.546,0.456,,,,,
COc1ccc(C2c3sc(Nc4ccc(S(N)(=O)=O)cc4)nc3Oc3[nH]c(=S)n(-c4ccccc4)c(=N)c32)cc1OC (stereo not drawn),31 µM,0.137,0.128,0.593,0.434,0.13,0.12,17 µM,0.4,0.21
N#CC1=C(N)Oc2nc(Nc3ccc(S(N)(=O)=O)cc3)sc2C1c1ccccc1Cl (stereo not drawn),,0.655,0.582,0.909,0.861,,,,,
Cc1nc2c(c(=O)[nH]1)C(c1ccc([N+](=O)[O-])cc1)c1sc(Nc3ccc(S(N)(=O)=O)cc3)nc1O2 (stereo not drawn),45 µM,0.213,0.301,0.764,0.498,,,,,
